Measurements from publication PMC4855831, “Cloning, expression and characterization of a β-D-xylosidase from Lactobacillus rossiae DSM 15814^T” (Microbial Cell Factories, 2016).

Target: T1, XylA (β-D-xylosidase, LROS_1108) (Furfurilactobacillus rossiae, UniProt A0A0R1REJ8)
T1 construct: gene FD35_GL000933; host Lactococcus lactis subsp. cremoris NZ9000; crude cell extract; from primers N-terminus MKIQNPVL, C-terminus KELPETK; EC 3.2.1.37
Test: p-nitrophenol release at […] nm, XylA-containing crude cell extract
Format: biochemical
Details: 5 mM pNPX, 50 mM phosphate buffer pH 5.7, 37.5 °C, 10 min

T1 sequence (A0A0R1REJ8 entry or part of it): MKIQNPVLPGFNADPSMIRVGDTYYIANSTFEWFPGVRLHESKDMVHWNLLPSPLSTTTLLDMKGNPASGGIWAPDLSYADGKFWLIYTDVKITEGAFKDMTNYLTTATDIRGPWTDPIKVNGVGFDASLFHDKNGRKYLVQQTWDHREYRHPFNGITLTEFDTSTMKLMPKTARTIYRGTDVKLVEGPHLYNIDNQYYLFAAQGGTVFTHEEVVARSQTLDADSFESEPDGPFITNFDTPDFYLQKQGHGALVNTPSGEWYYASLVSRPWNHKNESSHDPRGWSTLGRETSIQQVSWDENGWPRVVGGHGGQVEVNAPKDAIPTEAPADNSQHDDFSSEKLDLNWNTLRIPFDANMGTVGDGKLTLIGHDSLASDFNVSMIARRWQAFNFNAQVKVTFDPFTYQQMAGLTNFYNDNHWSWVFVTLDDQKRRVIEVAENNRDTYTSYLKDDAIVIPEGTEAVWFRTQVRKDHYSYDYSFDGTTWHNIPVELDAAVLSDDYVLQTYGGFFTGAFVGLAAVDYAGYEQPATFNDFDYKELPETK

O=[N+]([O-])c1ccc(O[C@@H]2OC[C@@H](O)[C@H](O)[C@H]2O)cc1 [p-nitrophenyl-β-D-xylopyranoside]
p-nitrophenol release at 410 nm, XylA-containing crude cell extract: amount of p-nitrophenol (pNP) released from p-nitrophenyl-β-D-xylopyranoside (pNPX) substrate
